Measurements: PubChem BioAssay (NCI)
Values joined by “and” are separate entries in the source; they are usually repeats but may differ in a detail not shown here. Equal values may be shown once.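 All cell lines were grown in 96-well plates and treated with compound for 48 hours. At the GI50, growth is halved. TGI: total growth inhibition.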

Test system: MDA-MB-468 breast
Experiment: inhibition of tumour cell growth, NCI panel, 48 h

SMILES	GI50	TGI
Cc1ccc([P+](Cc2ccc([N+](=O)[O-])cc2)(c2ccc(C)cc2)c2ccc(C)cc2)cc1	0.66 µM	5.8 µM
CC[C@]12C=CCN3CC[C@]4(C(=C(C(=O)OC)C1)Nc1cc(O)ccc14)[C@@H]32	9.38 µM	44 µM
COc1cc(C2C3=C(COC3=O)N(CCO)c3cc4c(cc32)CCC4)cc(OC)c1O (stereo unspecified)	0.0891 µM	–
Cc1nnc([S-])s1.[Au+].c1ccc([PH+](c2ccccc2)c2ccccc2)cc1	1.27 µM	2.86 µM
COC(=O)c1cc(Nc2ccc(O)c3c2C(=O)c2c([N+](=O)[O-])ccc(O)c2C3=O)cc(C(=O)OC)c1	16.5 µM	98.5 µM
Cc1nn(-c2ccccc2)c2c1C1C(=C(c3ccc(Cl)cc3)N2)C(=O)Nc2ccccc21 (stereo unspecified)	3.34 µM	19.5 µM
COC(=O)[C@H](Cc1ccccc1)NC(=O)c1csc([C@@H](C[C@H](C(C)C)N(C)C(=O)[C@@H](NC(=O)[C@H]2CCCCN2C)C2CC2)OC(C)=O)n1	0.0441 µM	> 25 µM
COc1ccccc1Cn1cc2c(c1)-c1oncc1CC2	0.217 µM	0.697 µM
COc1cc[nH]c1/C=C1\C(=O)Nc2ccc(F)c(C#CC3(O)CCOCC3)c21	0.71 µM	2.9 µM
NS(=O)(=O)c1ccc(Nc2nc(Nc3ccccc3)nc(-n3nc(-c4ccccc4)cc3-c3ccccc3)n2)cc1	2.31 µM	6.95 µM
CCOC(=O)c1[nH]c2c(c1C)-c1[nH]c(=O)c(S(=O)(=O)c3ccccc3)cc1SC2	54 µM	> 100 µM
C/C(=C(/c1ccc(O)cc1)c1ccc(OCCN2CCCC2)cc1)c1ccccc1	1.84 µM	4.47 µM
O=C1OC(c2ccc(O)cc2)(c2ccc(O)cc2)c2cccc3cccc1c23	4.06 µM	21.7 µM
CCCCCCCCCCCCCCCC[N+]1(CC)CCCC1	0.184 µM	0.799 µM
O=C1c2cccnc2C(=O)c2c1c(C(=O)OCCCN1CCOCC1)c1ccccn21	1.39 µM	7.1 µM
CCN(CC)CCC(=O)Nc1ccc(Cn2nnc3c2C(=O)c2nnn(Cc4ccc(NC(=O)CCN(CC)CC)cc4)c2C3=O)cc1	0.17 µM	0.374 µM
Cn1c(=O)n(-c2ccc(C(C)(C)C#N)cc2)c2c3cc(-c4cnc5ccccc5c4)ccc3ncc21	0.0118 µM and 0.00531 µM and < 0.0105 µM	0.0505 µM and 0.0285 µM and 0.0642 µM
Oc1ccc(CSc2nnc(-c3cnccn3)o2)c2cccnc12	0.639 µM	7.8 µM
COc1ccc(/C=C\c2cc(OC)c(OC)c(OC)c2)cc1OP(=O)(O)O	0.0543 µM	> 100 µM
N#CC1c2ccccc2-c2ccccc2N1C(=O)c1ccccc1 (stereo unspecified)	0.383 µM	> 26.1 µM
Nc1ncnc2occ(-c3ccc(NC(=O)Nc4cc(C(F)(F)F)cc(C(F)(F)F)c4)cc3)c12	2.75 µM	7.81 µM
Cc1ccc(NCSc2ccc(Cl)cc2)cc1	2.68 µM	8.05 µM
O=C1C=C(Nc2cccc(Br)c2)c2ccccc2C1=O	17.6 µM	83.8 µM
COc1ccccc1C(=O)c1cnc(NC2CCN(S(C)(=O)=O)CC2)nc1N	7.79 µM	> 25 µM
CCCC/C(=N\N=C(N)N)c1ccc(F)cc1	0.59 µM	5.81 µM
COc1ccc2nc3ccc(OC)cc3c(SCCCN)c2c1	1.4 µM	2.94 µM
